According to patent US20240116985A1, “STAPLED PEPTIDES AND METHODS THEREOF” (priority 2020, published 2024):
Values after ≈ are worked out from the molar mass of the structure shown. Like-named read-outs stand apart in the source and are kept apart here.

Legend:
[1] = target: T1, full-length beta-Catenin (Uniprot ID P35222) (Homo sapiens, UniProt P35222); experiment: Fluorescence polarization IC50 (beta-catenin / 5FAM-TCF4 10-53 competition); assay type: binding
T1 construct: 10 nM full-length beta-Catenin (Uniprot ID P35222)
T1 sequence (P35222 1-781): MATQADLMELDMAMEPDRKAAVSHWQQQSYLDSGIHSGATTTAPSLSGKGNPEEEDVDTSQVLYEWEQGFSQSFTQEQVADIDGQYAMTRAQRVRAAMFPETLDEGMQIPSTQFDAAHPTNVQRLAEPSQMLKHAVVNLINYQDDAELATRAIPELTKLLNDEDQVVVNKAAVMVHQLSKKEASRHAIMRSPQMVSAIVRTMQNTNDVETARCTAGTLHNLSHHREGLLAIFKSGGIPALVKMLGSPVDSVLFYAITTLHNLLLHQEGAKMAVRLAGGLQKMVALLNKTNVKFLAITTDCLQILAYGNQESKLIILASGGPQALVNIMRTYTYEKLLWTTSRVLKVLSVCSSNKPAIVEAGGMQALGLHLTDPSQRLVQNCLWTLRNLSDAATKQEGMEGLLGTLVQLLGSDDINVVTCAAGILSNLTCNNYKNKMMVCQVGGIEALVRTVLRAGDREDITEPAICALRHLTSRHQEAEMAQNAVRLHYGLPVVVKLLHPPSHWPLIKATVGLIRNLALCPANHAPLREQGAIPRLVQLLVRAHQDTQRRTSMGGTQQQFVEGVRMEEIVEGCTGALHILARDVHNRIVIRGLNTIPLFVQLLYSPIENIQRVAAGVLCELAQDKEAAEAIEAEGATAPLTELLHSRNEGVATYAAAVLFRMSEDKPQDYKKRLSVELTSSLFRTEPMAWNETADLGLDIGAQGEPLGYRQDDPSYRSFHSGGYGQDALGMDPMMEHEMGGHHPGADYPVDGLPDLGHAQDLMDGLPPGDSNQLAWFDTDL

CHI Log D procedure = assay type: physicochemical; settings: for chromatographic logD: pH 7.4, CHI Log D; for CHI Log D: pH 7.4
Solubility in PBS = assay type: physicochemical
Summary of the method: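 Read-out is the HPLC peak area of the supernatant from ultracentrifuged PBS solution, scaled against a 50 μM peptide DMSO injection; value reported as [(PBS area)/(DMSO area)]*50 uM.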

[2] = target: T2, beta-catenin/TCF4 engagement (Homo sapiens, UniProt P35222); experiment: Nano-BRET target engagement assay (B-cat-Halo & TCF4-Luc in HEK293 cells); assay type: cell-based; settings: for inhibition at 10 µM: HEK293, 10 uM, read-out: NanoBRET % inh @ 10 uM
T2 construct: expressed in transfected cells; host or cells: HEK293
T2 sequence (P35222 1-781): T1 sequence (P35222 1-781)

[3] = fluorescence polarization, beta-catenin, read-out: FP EC50
[4] = absolute IC50, read-out: NanoBRET Abs IC50

Compound | IC50 ([1]; read-out: beta-Catenin FP IC50) | chromatographic logD (CHI Log D procedure) | Solubility (Solubility in PBS; Solubility (uM)) | IC50 ([2]; read-out: NanoBRET Abs IC50) | inhibition at 10 µM [2] | IC50 ([2]; read-out: NanoBRET IC50) | IC50 [1, 3] | CHI Log D (CHI Log D procedure) | Solubility (Solubility in PBS) | IC50 [2, 4]
CC(=O)N1CCC[C@]12CC=CCCCC1(CCCC=CCCCOC(=O)N3CC[C@@](C(=O)N[C@@H](Cc4ccsc4)C(=O)N[C@@H](Cc4csc5ccccc45)C(=O)N[C@@H](CC(N)=O)C(=O)N[C@@H](C)C(N)=O)(C3)NC(=O)[C@H](CC(N)=O)NC(=O)[C@H](Cc3ccccc3)NC(=O)[C@H](C)NC(=O)[C@H](C)NC(=O)[C@H](CC(=O)O)NC(=O)[C@H](CC(=O)O)NC1=O)NC(=O)[C@H](CC(C)(C)C)NC(=O)[C@H](CC(=O)O)NC2=O (stereo partly drawn) [I-821, Ac-PL3-Asp-Npg-B5-Asp-Asp-Ala-Ala-Phe-Asn-PyrS2-3Thi-BztA-Asn-Ala-NH2] | 5 nM | 2.07 | 36 µM (≈ 71.1 µg/mL) | 9100 nM |  |  |  |  |  | 
CC(=O)N1CCC[C@]12CC=CCCCC1(CCCC=CCCCOC(=O)N3CC[C@@](C(=O)N[C@@H](Cc4ccsc4)C(=O)N[C@@H](Cc4csc5ccccc45)C(=O)N[C@@H](Cc4c[nH]cn4)C(=O)N[C@H](C)C(N)=O)(C3)NC(=O)[C@H](CC(N)=O)NC(=O)[C@H](Cc3ccccc3)NC(=O)[C@H](C)NC(=O)[C@H](C)NC(=O)[C@H](CC(=O)O)NC(=O)[C@H](CC(=O)O)NC1=O)NC(=O)[C@H](CC(C)(C)C)NC(=O)[C@H](CC(=O)O)NC2=O (stereo partly drawn) [I-823, Ac-PL3-Asp-Npg-B5-Asp-Asp-Ala-Ala-Phe-Asn-PyrS2-3Thi-BztA-His-dAla-NH2] | 5 nM | 2.09 | 32 µM (≈ 63.9 µg/mL) | 18300 nM | 37.5% | > 10000 nM |  |  |  | 
CC(=O)N1CCC[C@]12CC=CCCCC1(CCCC=CCCCOC(=O)N3CC[C@@](C(=O)N[C@@H](Cc4ccsc4)C(=O)N[C@@H](Cc4csc5ccccc45)C(=O)N[C@@H](CC(N)=O)C(=O)N[C@H](C)C(N)=O)(C3)NC(=O)[C@H](CC(N)=O)NC(=O)[C@H](Cc3ccccc3)NC(=O)[C@H](C)NC(=O)[C@H](C)NC(=O)[C@H](CC(=O)O)NC(=O)[C@H](CC(=O)O)NC1=O)NC(=O)[C@H](CC(C)(C)C)NC(=O)[C@H](CC(=O)O)NC2=O (stereo partly drawn) [I-824, Ac-PL3-Asp-Npg-B5-Asp-Asp-Ala-Ala-Phe-Asn-PyrS2-3Thi-BztA-Asn-dAla-NH2] | 7 nM | 2.06 | 36 µM (≈ 71.1 µg/mL) | 14700 nM |  |  |  |  |  | 
CC(=O)N1CCC[C@]12CC=CCCCC1(CCCC=CCCCCOC(=O)N3CC[C@@](C(=O)N[C@@H](Cc4ccsc4)C(=O)N[C@@H](Cc4csc5ccccc45)C(=O)N[C@@H](CCC(N)=O)C(=O)N[C@@H](C)C(N)=O)(C3)NC(=O)[C@H](CC(N)=O)NC(=O)[C@H](Cc3ccccc3)NC(=O)[C@H](C)NC(=O)[C@H](C)NC(=O)[C@H](CC(=O)O)NC(=O)[C@H](CC(=O)O)NC1=O)NC(=O)[C@H](CC(C)(C)C)NC(=O)[C@H](CC(=O)O)NC2=O (stereo partly drawn) [I-826, Ac-PL3-Asp-Npg-B5-Asp-Asp-Ala-Ala-Phe-Asn-PyrS3-3Thi-BztA-Gln-Ala-NH2] | 15 nM |  |  | 22700 nM |  |  | 15 nM | 2.066 | 30 µM (≈ 60.1 µg/mL) | 
CC(=O)N1CCC[C@]12CC=CCCCC1(CCCC=CCCCCOC(=O)N3CC[C@@](C(=O)N[C@@H](Cc4ccsc4)C(=O)N[C@@H](Cc4csc5ccccc45)C(=O)N[C@@H](CC(N)=O)C(=O)N[C@@H](C)C(N)=O)(C3)NC(=O)[C@H](CC(N)=O)NC(=O)[C@H](Cc3ccccc3)NC(=O)[C@H](C)NC(=O)[C@H](C)NC(=O)[C@H](CC(=O)O)NC(=O)[C@H](CC(=O)O)NC1=O)NC(=O)[C@H](CC(C)(C)C)NC(=O)[C@H](CC(=O)O)NC2=O (stereo partly drawn) [I-829, Ac-PL3-Asp-Npg-B5-Asp-Asp-Ala-Ala-Phe-Asn-PyrS3-3Thi-BztA-Asn-Ala-NH2] | 15 nM | 2.08 | 34 µM (≈ 67.6 µg/mL) | 30200 nM |  |  |  |  |  | 
CC(=O)N1CCC[C@]12CC=CCCCC1(CCCC=CCCCCOC(=O)N3CC[C@@](C(=O)N[C@@H](Cc4ccsc4)C(=O)N[C@@H](Cc4csc5ccccc45)C(=O)N[C@@H](CCC(N)=O)C(=O)N[C@H](C)C(N)=O)(C3)NC(=O)[C@H](CC(N)=O)NC(=O)[C@H](Cc3ccccc3)NC(=O)[C@H](C)NC(=O)[C@H](C)NC(=O)[C@H](CC(=O)O)NC(=O)[C@H](CC(=O)O)NC1=O)NC(=O)[C@H](CC(C)(C)C)NC(=O)[C@H](CC(=O)O)NC2=O (stereo partly drawn) [I-831, Ac-PL3-Asp-Npg-B5-Asp-Asp-Ala-Ala-Phe-Asn-PyrS3-3Thi-BztA-Gln-dAla-NH2] | 11 nM |  |  | 25600 nM | 32.4% |  | 11 nM | 2.075 | 50 µM (≈ 100 µg/mL) | 
CC(=O)N1CCC[C@]12CC=CCCCC1(CCCC=CCCCCOC(=O)N3CC[C@@](C(=O)N[C@@H](Cc4ccsc4)C(=O)N[C@@H](Cc4csc5ccccc45)C(=O)N[C@@H](Cc4c[nH]cn4)C(=O)N[C@H](C)C(N)=O)(C3)NC(=O)[C@H](CC(N)=O)NC(=O)[C@H](Cc3ccccc3)NC(=O)[C@H](C)NC(=O)[C@H](C)NC(=O)[C@H](CC(=O)O)NC(=O)[C@H](CC(=O)O)NC1=O)NC(=O)[C@H](CC(C)(C)C)NC(=O)[C@H](CC(=O)O)NC2=O (stereo partly drawn) [I-833, Ac-PL3-Asp-Npg-B5-Asp-Asp-Ala-Ala-Phe-Asn-PyrS3-3Thi-BztA-His-dAla-NH2] | 8 nM |  |  | 48100 nM |  |  | 8 nM | 2.146 | 50 µM (≈ 101 µg/mL) | 
CC(=O)N1CCC[C@]12CC=CCCCC1(CCCC=CCCCCOC(=O)N3CC[C@@](C(=O)N[C@@H](Cc4ccsc4)C(=O)N[C@@H](Cc4csc5ccccc45)C(=O)N[C@@H](CC(N)=O)C(=O)N[C@H](C)C(N)=O)(C3)NC(=O)[C@H](CC(N)=O)NC(=O)[C@H](Cc3ccccc3)NC(=O)[C@H](C)NC(=O)[C@H](C)NC(=O)[C@H](CC(=O)O)NC(=O)[C@H](CC(=O)O)NC1=O)NC(=O)[C@H](CC(C)(C)C)NC(=O)[C@H](CC(=O)O)NC2=O (stereo partly drawn) [I-835, Ac-PL3-Asp-Npg-B5-Asp-Asp-Ala-Ala-Phe-Asn-PyrS3-3Thi-BztA-Asn-dAla-NH2] | 11 nM |  |  | 37600 nM | 27.6% |  | 11 nM | 2.109 | 50 µM (≈ 99.5 µg/mL) | 
CC(=O)N1CCC[C@]12CC=CCCCC1(CCCC=CCCCOC(=O)N3CC[C@@](C(=O)N[C@@H](Cc4ccsc4)C(=O)N[C@@H](Cc4csc5ccccc45)C(=O)N[C@@H](CCC(N)=O)C(N)=O)(C3)NC(=O)[C@H](CC(N)=O)NC(=O)[C@H](Cc3ccccc3)NC(=O)[C@H](C)NC(=O)[C@H](C)NC(=O)[C@H](CC(N)=O)NC(=O)[C@H](CC(=O)O)NC1=O)NC(=O)[C@H](CC(C)(C)C)NC(=O)[C@H](CC(=O)O)NC2=O (stereo partly drawn) [I-836, Ac-PL3-Asp-Npg-B5-Asp-Asn-Ala-Ala-Phe-Asn-PyrS2-3Thi-BztA-Gln-NH2] | 11 nM | 2.22 | 41 µM (≈ 78.6 µg/mL) |  |  |  |  |  |  | 16900 nM
CC(=O)N1CCC[C@]12CC=CCCCC1(CCCC=CCCCOC(=O)N3CC[C@@](C(=O)N[C@@H](Cc4ccsc4)C(=O)N[C@@H](Cc4csc5ccccc45)C(=O)N[C@@H](Cc4c[nH]cn4)C(N)=O)(C3)NC(=O)[C@H](CC(N)=O)NC(=O)[C@H](Cc3ccccc3)NC(=O)[C@H](C)NC(=O)[C@H](C)NC(=O)[C@H](CC(N)=O)NC(=O)[C@H](CC(=O)O)NC1=O)NC(=O)[C@H](CC(C)(C)C)NC(=O)[C@H](CC(=O)O)NC2=O (stereo partly drawn) [I-837, Ac-PL3-Asp-Npg-B5-Asp-Asn-Ala-Ala-Phe-Asn-PyrS2-3Thi-BztA-His-NH2] | 5 nM | 2.3 | 14 µM (≈ 27 µg/mL) |  |  |  |  |  |  | 23800 nM
